Results: patent US10472395B2, “Cyclic peptide analogs and conjugates thereof” (Sirenas LLC, priority 2015, dated 2019)
Numbered stars: 1 amine (or outer) side, 2 acyl side, 3 side chain; on linkers, the order of the positions; unused ones are H or OH. Bridge positions count the residues as written; N and C are the ends. Square brackets hold non-standard residues; d marks the D form. Peptide text beside a SMILES is read from it. ξ: configuration not given here. X6 = C/C=C(\C)[C@@H](O[*:2])[C@@H](C)[C@H](C/C=C(\C)C(=O)[*:1])OCSC; X8 = C/C=C(\C)[C@@H](O[*:2])[C@@H](C)CC/C=C(\C)C(=O)[*:1]; X2 = C/C(=C\CCC[C@@H](O[*:2])C(C)C)C(=O)[*:1]; X7 = C/C(=C\CCC[C@H](O[*:2])C(C)C)C(=O)[*:1]; X1 = C/C(=C\CC[C@@H](C)CO[*:2])C(=O)[*:1]; X5 = C/C(=C\CC[C@H](C)CO[*:2])C(=O)[*:1]; aIle = CC[C@@H](C)[C@H](N)C(=O)O; dNMeF = CN[C@H](Cc1ccccc1)C(=O)O; Ile(3ξ) = CCC(C)[C@H](N)C(=O)O; dHica = CC(C)C[C@@H](O)C(=O)O; dNMeA = CN[C@H](C)C(=O)O; Sar = CNCC(=O)O

Experiments:
[1] = test system: BT-474 human mammary gland ductal carcinoma cells; experiment: Inhibitory response of test compounds against BT-474 cells (Cell Titer-Glo, 72 h); format: cell-based; details: Homo sapiens
Description: (§1) BT-474 human mammary gland ductal carcinoma cells were seeded in a clear polystyrene 96-well microculture plate (Corning® Costar® 96-well flat bottom plate, Cat.#3997) in a total volume of 90 μL/well. After 24 hours of incubation in a humidified incubator at 37° C. with 5% CO2 and 95% air, 10 μL of 10×, serially diluted test agents in growth medium were added to each well (10 pt dose response curve, highest concentration 10 μM of test agent). After 72 hours of culture in a humidified incubator at 37° C., in an atmosphere of 5% CO2 and 95% air, the plated cells and Cell Titer-Glo® (Promega G7571) reagents were brought to room temperature to equilibrate for 30 minutes. 100 μL of Cell Titer-Glo® reagent was added to each well. The plate was shaken for two minutes and then left to equilibrate for ten minutes. The media/Cell Titer-Glo® reagent was transferred to a white polystyrene 96-well microculture plate (Corning® Costar® 96-well flat bottom plate, Cat.#3917) before reading luminescence on a Tecan GENios microplate reader.
(§2) Percent inhibition of cell growth was calculated relative to untreated control wells. The IC50 value for the test agents was determined using Prism 6.05 by curve-fitting of the data using the following four parameter-logistic equation:
(§3) [formula] where Top is the maximal % of control absorbance, Bottom is the minimal % of control absorbance at the highest agent concentration, Y is the % of control absorbance, X is the agent concentration, IC50 is the concentration of agent that inhibits cell growth by 50% compared to the control cells, and n is the slope of the curve.

HCC1954 cells = experiment: Inhibitory response of test compounds against HCC1954 cells (method analogous to BT-474); format: cell-based; details: Homo sapiens
Description: as §1, §2, §3
Inhibitory response of test compounds against HCC1954 cells was determined using a method analogous to that used for BT-474 cells.

Compound	IC50 [1]	IC50 (HCC1954 cells)
C/C=C(\C)[C@H]1OC(=O)[C@@H](CCCCN)NC(=O)[C@H]([C@H](C)CC)NC(=O)CN(C)C(=O)[C@@H](Cc2ccccc2)N(C)C(=O)[C@H](C)NC(=O)[C@@H](CC(C)C)NC(=O)/C(C)=C/C[C@H](OCSC)[C@@H]1C [Compound 83] ([dL]A[dNMeF][Sar][aIle][dK]; linker N-C via X6)	> 10000 nM	> 10000 nM
C/C=C(\C)[C@H]1OC(=O)[C@@H](CCCCN)NC(=O)[C@H](C(C)CC)NC(=O)CN(C)C(=O)[C@@H](Cc2ccccc2)N(C)C(=O)[C@H](C)NC(=O)[C@@H](CC(C)C)OC(=O)/C(C)=C/C[C@H](O)[C@@H]1C (some centres unmarked) [Compound 84]	200 to 10000 nM	200 to 10000 nM
CCC(C)[C@@H]1NC(=O)CN(C)C(=O)[C@@H](Cc2ccccc2)N(C)C(=O)[C@H](C)NC(=O)[C@@H](CC(C)C)OC(=O)/C(C)=C/CCC[C@@H](C(C)C)OC(=O)[C@@H](C)NC1=O (some centres unmarked) [Compound 86] ([dHica]A[dNMeF][Sar][Ile(3ξ)][dA]; linker N-C via X7)	200 to 10000 nM	200 to 10000 nM
CCC(C)[C@@H]1NC(=O)CN(C)C(=O)[C@@H](Cc2ccccc2)N(C)C(=O)[C@H](C)NC(=O)[C@@H](CC(C)C)OC(=O)/C(C)=C/CCC[C@H](C(C)C)OC(=O)[C@@H](C)NC1=O (some centres unmarked) [Compound 87] ([dHica]A[dNMeF][Sar][Ile(3ξ)][dA]; linker N-C via X2)	200 to 10000 nM	200 to 10000 nM
CCC(C)[C@@H]1NC(=O)CN(C)C(=O)[C@@H](Cc2ccccc2)N(C)C(=O)[C@H](C)NC(=O)[C@@H](CC(C)C)OC(=O)/C(C)=C/CCC[C@@H](C(C)C)OC(=O)[C@@H](C)N(C)C1=O (some centres unmarked) [Compound 88] ([dHica]A[dNMeF][Sar][Ile(3ξ)][dNMeA]; linker N-C via X7)	200 to 10000 nM	200 to 10000 nM
CCC(C)[C@@H]1NC(=O)CN(C)C(=O)[C@@H](Cc2ccccc2)N(C)C(=O)[C@H](C)NC(=O)[C@@H](CC(C)C)OC(=O)/C(C)=C/CCC[C@H](C(C)C)OC(=O)[C@@H](C)N(C)C1=O (some centres unmarked) [Compound 89] ([dHica]A[dNMeF][Sar][Ile(3ξ)][dNMeA]; linker N-C via X2)	20 to 200 nM	200 to 10000 nM
C/C=C(\C)[C@H]1OC(=O)[C@@H](C)NC(=O)[C@H](C(C)CC)NC(=O)CN(C)C(=O)[C@@H](Cc2ccccc2)N(C)C(=O)[C@H](C)NC(=O)[C@@H](CC(C)C)OC(=O)/C(C)=C/CC[C@@H]1C (some centres unmarked) [Compound 90]	< 20 nM	< 20 nM
CCC(C)[C@@H]1NC(=O)CN(C)C(=O)[C@@H](Cc2ccccc2)N(C)C(=O)[C@H](C)NC(=O)[C@@H](CC(C)C)OC(=O)/C(C)=C/CC[C@H](C)COC(=O)[C@@H](C)NC1=O (some centres unmarked) [Compound 91] ([dHica]A[dNMeF][Sar][Ile(3ξ)][dA]; linker N-C via X5)	200 to 10000 nM	200 to 10000 nM
CCC(C)[C@@H]1NC(=O)CN(C)C(=O)[C@@H](Cc2ccccc2)N(C)C(=O)[C@H](C)NC(=O)[C@@H](CC(C)C)OC(=O)/C(C)=C/CC[C@@H](C)COC(=O)[C@@H](C)NC1=O (some centres unmarked) [Compound 92] ([dHica]A[dNMeF][Sar][Ile(3ξ)][dA]; linker N-C via X1)	200 to 10000 nM	200 to 10000 nM
C/C=C(\C)[C@H]1OC(=O)[C@@H](C)NC(=O)[C@H](C(C)CC)NC(=O)CN(C)C(=O)[C@@H](Cc2ccccc2)N(C)C(=O)[C@H](C)NC(=O)[C@@H](CC(C)C)OC(=O)/C(C)=C/C[C@H](OC(=O)N(C)CCN(C)C(=O)OC(C)(C)C)[C@@H]1C (some centres unmarked) [Compound 93]	< 20 nM	< 20 nM
C/C=C(\C)[C@H]1OC(=O)[C@@H](C)NC(=O)[C@H](C(C)CC)NC(=O)CN(C)C(=O)[C@@H](Cc2ccccc2)N(C)C(=O)[C@H](C)NC(=O)[C@@H](CC(C)C)OC(=O)/C(C)=C/C[C@H](OCSC)[C@@H]1C (some centres unmarked) [Compound 94]	< 20 nM	< 20 nM
C/C=C(\C)[C@H]1OC(=O)[C@@H](C)NC(=O)[C@H](C(C)CC)NC(=O)CN(C)C(=O)[C@@H](Cc2ccc(OC)cc2)N(C)C(=O)[C@H](C)NC(=O)[C@@H](CC(C)C)OC(=O)/C(C)=C/C=C/[C@@H]1C (some centres unmarked) [Compound 95]	< 20 nM	20 to 200 nM
C/C=C(\C)[C@H]1OC(=O)[C@@H](C)NC(=O)[C@H]([C@H](C)CC)NC(=O)CN(C)C(=O)[C@@H](Cc2ccccc2)N(C)C(=O)[C@H](CCCCNC(=O)OC(C)(C)C)NC(=O)[C@@H](CC(C)C)OC(=O)/C(C)=C/C[C@H](O)[C@@H]1C [Compound 96]	< 20 nM	< 20 nM
C/C=C(\C)[C@H]1OC(=O)[C@@H](C)NC(=O)[C@H]([C@H](C)CC)NC(=O)CN(C)C(=O)[C@@H](Cc2ccc(OCc3ccccc3)cc2)N(C)C(=O)[C@H](C)NC(=O)[C@@H](CC(C)C)OC(=O)/C(C)=C/C=C/[C@@H]1C [Compound 98]	< 20 nM	< 20 nM
C/C=C(\C)[C@H]1OC(=O)[C@@H](C)NC(=O)[C@H](C(C)CC)NC(=O)CN(C)C(=O)[C@@H](Cc2ccc(O)cc2)N(C)C(=O)[C@H](C)NC(=O)[C@@H](CC(C)C)OC(=O)/C(C)=C/C=C/[C@@H]1C (some centres unmarked) [Compound 99]	20 to 200 nM	200 to 10000 nM
C/C=C(\C)[C@H]1OC(=O)[C@@H](C)N(C)C(=O)[C@H](C(C)CC)NC(=O)CN(C)C(=O)[C@@H](Cc2ccccc2)N(C)C(=O)[C@H](C)NC(=O)[C@@H](CC(C)C)OC(=O)/C(C)=C/CC[C@@H]1C (some centres unmarked) [Compound 100] ([dHica]A[dNMeF][Sar][Ile(3ξ)][dNMeA]; linker N-C via X8)	< 20 nM	20 to 200 nM
C/C=C(\C)[C@H]1OC(=O)[C@@H](C)NC(=O)[C@H]([C@H](C)CC)NC(=O)CN(C)C(=O)[C@@H](Cc2ccc(F)cc2)N(C)C(=O)[C@H](C)NC(=O)[C@@H](CC(C)C)OC(=O)/C(C)=C/C[C@H](OCSC)[C@@H]1C [Compound 101]	< 20 nM	< 20 nM
C/C=C(\C)[C@H]1OC(=O)[C@@H](C)NC(=O)[C@H](C(C)CC)NC(=O)CN(C)C(=O)[C@@H](Cc2ccc(O)cc2)N(C)C(=O)[C@H](C)NC(=O)[C@@H](CC(C)C)OC(=O)/C(C)=C/CC[C@@H]1C (some centres unmarked) [Compound 102]	< 20 nM	20 to 200 nM
C/C=C(\C)[C@H]1OC(=O)[C@@H](C)NC(=O)[C@H]([C@H](C)CC)NC(=O)CN(C)C(=O)[C@@H](Cc2ccccc2)N(C)C(=O)[C@H](C)NC(=O)[C@@H](CC(C)C)OC(=O)/C(C)=C/C[C@H](OC(=O)NCCCCCCNC(=O)OC(C)(C)C)[C@@H]1C [Compound 105]	< 20 nM	< 20 nM
C/C=C(\C)[C@H]1OC(=O)[C@@H](C)NC(=O)[C@H]([C@H](C)CC)NC(=O)CN(C)C(=O)[C@@H](Cc2ccccc2)N(C)C(=O)[C@H](C)NC(=O)[C@@H](CC(C)C)OC(=O)/C(C)=C/C[C@H](OC(=O)NCCCOCCOCCOCCCNC(=O)OC(C)(C)C)[C@@H]1C [Compound 106]	< 20 nM	< 20 nM
C/C=C(\C)[C@H]1OC(=O)[C@@H](C)NC(=O)[C@H](C(C)CC)NC(=O)CN(C)C(=O)[C@@H](Cc2ccccc2)N(C)C(=O)[C@H](C)NC(=O)[C@@H](CC(C)C)OC(=O)/C(C)=C/C[C@H](CC(=O)NCCCCCCN)[C@@H]1C (some centres unmarked) [Compound 107]	< 20 nM	20 to 200 nM
C/C=C(\C)[C@H]1OC(=O)[C@@H](C)NC(=O)[C@H](C(C)CC)NC(=O)CN(C)C(=O)[C@@H](Cc2ccccc2)N(C)C(=O)[C@H](C)NC(=O)[C@@H](CC(C)C)OC(=O)/C(C)=C/C[C@H](OC(=O)NCCCOCCOCCOCCCN)[C@@H]1C (some centres unmarked) [Compound 108]	20 to 200 nM	200 to 10000 nM
C/C=C(\C)[C@H]1OC(=O)[C@@H](C)NC(=O)[C@H]([C@H](C)CC)NC(=O)CN(C)C(=O)[C@@H](Cc2ccccc2)N(C)C(=O)[C@H](C)NC(=O)[C@@H](CC(C)C)OC(=O)/C(C)=C/C[C@H](CC(=O)N(C)CCN(C)C(=O)c2ccc(C=O)cc2)[C@@H]1C [Compound 110]	< 20 nM	20 to 200 nM
C/C=C(\C)[C@H]1OC(=O)[C@@H](C)NC(=O)[C@H]([C@H](C)CC)NC(=O)CN(C)C(=O)[C@@H](Cc2ccccc2)N(C)C(=O)[C@H](C)NC(=O)[C@@H](CC(C)C)OC(=O)/C(C)=C/C[C@H](OC(=O)NCCCCCCNC(=O)CCOCCOCCOCCOCCNC(=O)c2ccc(C=O)cc2)[C@@H]1C [Compound 111]	> 10000 nM	> 10000 nM
C/C=C(\C)[C@H]1OC(=O)[C@@H](C)NC(=O)[C@H]([C@H](C)CC)NC(=O)CN(C)C(=O)[C@@H](Cc2ccccc2)N(C)C(=O)[C@H](C)NC(=O)[C@@H](CC(C)C)OC(=O)/C(C)=C/C[C@H](OC(=O)NCCCOCCOCCOCCCN=[N+]=N)[C@@H]1C [Compound 113]	< 20 nM	< 20 nM
